Where a name gives a salt, the structure may show the parent alone.

For orientation: IC50 means the concentration that inhibits the measured activity by half.

The target of this experiment is JNK1 (Homo sapiens (Human), UniProt P45983). The experiment can be described thus: In Vitro JNK1 Assay (TR-FRET, phosphorylation of GST-c-Jun). The format is biochemical. As to conditions: 0.2 nM active JNK1 kinase, 26.7 nM GST-c-Jun, 2 μM ATP, 30 min at room temperature. As to the method: Phosphorylation of GST-c-Jun protein (amino acid residues 1-79) was measured as JNK1 activity. […] The reaction buffer contained 50 mM HEPES, pH […], 1 mM DTT, 0.1 mM Na3VO4 and 0.2 mg/mL BSA. After 30 min. incubation at room temperature, the reaction was terminated by adding buffer containing 8 mM EDTA and a polyclonal anti-phospho-c-Jun antibody (Cell Signaling #9261L), followed by an additional incubation of 30 min. at room temperature. […] Time-resolved Fluorescence Resonance Energy Transfer (TR-FRET) signals were measured 1 hr. later on the EnVision reader (Perkin Elmer). Compound potency was assessed at 10 serially diluted concentrations. Percentage of inhibition at each concentration was determined to generate an IC50 value for each compound.
Sequence of JNK1 (P45983 whole entry, the tested form may be a part): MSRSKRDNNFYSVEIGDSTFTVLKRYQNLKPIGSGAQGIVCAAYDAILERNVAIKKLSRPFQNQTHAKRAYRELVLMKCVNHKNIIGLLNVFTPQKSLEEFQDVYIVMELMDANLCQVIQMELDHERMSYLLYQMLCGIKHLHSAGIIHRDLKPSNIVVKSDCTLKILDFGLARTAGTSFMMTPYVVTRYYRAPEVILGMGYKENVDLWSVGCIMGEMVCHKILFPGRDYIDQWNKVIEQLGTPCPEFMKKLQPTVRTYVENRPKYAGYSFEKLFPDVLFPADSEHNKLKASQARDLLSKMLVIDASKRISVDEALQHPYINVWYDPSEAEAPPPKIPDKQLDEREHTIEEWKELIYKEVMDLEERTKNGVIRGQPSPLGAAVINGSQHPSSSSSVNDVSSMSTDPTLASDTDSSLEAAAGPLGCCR
`NC(=O)C1CCN(c2ccc(C(=O)NCc3cn(-c4ccccc4)c4cc(Cl)ccc4c3=O)cn2)CC1` [Example I-86, 3,4,5,6-Tetrahydro-2H-[1,2′]bipyridinyl-4,5′-dicarboxylic acid 4-amide-5′-[(7-chloro-4-oxo-1-phenyl-1,4-dihydro-quinolin-3-ylmethyl)-amide]] returned an IC50 of 110 nM. With `O=C(NCc1cn(-c2ccccc2)c2cc(Cl)ccc2c1=O)c1ccc(N2CC[C@H](O)C2)nc1` [Example I-87, N-(7-Chloro-4-oxo-1-phenyl-1,4-dihydro-quinolin-3-ylmethyl)-6-((S)-3-hydroxy-pyrrolidin-1-yl)-nicotinamide], the IC50 was 120 nM. Under `CN1CCN(c2ccc(C(=O)NCc3cn(-c4ccccc4)c4cc(Cl)ccc4c3=O)cn2)CC1` [Example I-88, N-(7-Chloro-4-oxo-1-phenyl-1,4-dihydro-quinolin-3-ylmethyl)-6-(4-methyl-piperazin-1-yl)-nicotinamide] stands 250 nM; under `NC1CCN(c2ccc(C(=O)NCc3cn(-c4ccccc4)c4cc(Cl)ccc4c3=O)cn2)CC1` [Example I-90, 4-Amino-3,4,5,6-tetrahydro-2H-[1,2′]bipyridinyl-5′-carboxylic acid (7-chloro-4-oxo-1-phenyl-1,4-dihydro-quinolin-3-ylmethyl)-amide trifluoroacetate], 130 nM; under `O=C(NCc1cn(-c2ccccc2Cl)c2cc(Cl)ccc2c1=O)c1ccc(Br)nc1` [Example I-101, 6-Bromo-N-[7-chloro-1-(2-chloro-phenyl)-4-oxo-1,4-dihydro-quinolin-3-ylmethyl]-nicotinamide], 600 nM. Compound `O=C(NCc1cn(-c2ccccc2Cl)c2cc(Cl)ccc2c1=O)c1ccc(-c2cn[nH]c2)nc1` [Example I-102, N-[7-Chloro-1-(2-chloro-phenyl)-4-oxo-1,4-dihydro-quinolin-3-ylmethyl]-6-(1H-pyrazol-4-yl)-nicotinamide] showed an IC50 of 740 nM. `O=C(NCc1cn(-c2ccccc2F)c2cc(F)ccc2c1=O)c1ccc(Cl)nc1` [Example I-105, 6-Chloro-N-[7-fluoro-1-(2-fluoro-phenyl)-4-oxo-1,4-dihydro-quinolin-3-yl-methyl]-nicotinamide] displayed an IC50 of 150 nM.

`O=C(NCc1cn(-c2ccccc2F)c2cc(F)ccc2c1=O)c1ccc(N2CCS(=O)(=O)CC2)nc1` [Example I-107, 6-(1,1-Dioxo-1-thiomorpholin-4-yl)-N-[7-fluoro-1-(2-fluoro-phenyl)-4-oxo-1,4-dihydro-quinolin-3-ylmethyl]-nicotinamide]: the half-maximal inhibitory concentration (IC50) was 100 nM. Under `COC(=O)c1c(CNC(=O)C2CCN(S(C)(=O)=O)CC2)c(=O)c2ccc(Cl)cc2n1-c1ccccc1` [Example I-131, 7-Chloro-3-{[(1-methanesulfonyl-piperidine-4-carbonyl)-amino]-methyl}-4-oxo-1-phenyl-1,4-dihydro-quinoline-2-carboxylic acid methyl ester] stands 640 nM. Under `COC(=O)c1c(CNC(=O)c2ccccn2)c(=O)c2ccc(Cl)cc2n1-c1ccccc1` [Example I-146, 7-Chloro-4-oxo-1-phenyl-3-{[(pyridine-2-carbonyl)-amino]-methyl}-1,4-dihydro-quinoline-2-carboxylic acid methyl ester] stands 100 nM; under `COC(=O)c1c(CNC(=O)C(C)C)c(=O)c2ccc(Cl)cc2n1-c1ccccc1` [Example I-147, 7-Chloro-3-(isobutyrylamino-methyl)-4-oxo-1-phenyl-1,4-dihydro-quinoline-2-carboxylic acid methyl ester], 200 nM; under `COC(=O)c1c(CNC(=O)c2ccccc2Cl)c(=O)c2ccc(Cl)cc2n1-c1ccccc1` [Example I-148, 7-Chloro-3-[(2-chloro-benzoylamino)-methyl]-4-oxo-1-phenyl-1,4-dihydro-quinoline-2-carboxylic acid methyl ester], 430 nM. Take `COC(=O)c1c(CNC(=O)c2ccccc2OC)c(=O)c2ccc(Cl)cc2n1-c1ccccc1` [Example I-149, 7-Chloro-3-[(2-methoxy-benzoylamino)-methyl]-4-oxo-1-phenyl-1,4-dihydro-quinoline-2-carboxylic acid methyl ester]: half-maximal inhibition (IC50) was put at 670 nM.

`COC(=O)c1c(CNC(=O)c2ccc(N(C)C)cc2)c(=O)c2ccc(OC)cc2n1-c1ccccc1` [Example I-167, 3-[(4-Dimethylamino-benzoylamino)-methyl]-7-methoxy-4-oxo-1-phenyl-1,4-dihydro-quinoline-2-carboxylic acid methyl ester] came in with an IC50 of 180 nM. Under `O=c1c(CNc2cc(N3CCCCC3)ncn2)cn(-c2ccccc2)c2cc(Cl)ccc12` [Example I-173, 7-Chloro-1-phenyl-3-[(6-piperidin-1-yl-pyrimidin-4-ylamino)-methyl]-1H-quinolin-4-one] stands 140 nM; under `O=c1c(CNc2ccnc(N3CCCCC3)n2)cn(-c2ccccc2)c2cc(Cl)ccc12` [Example I-174, 7-Chloro-1-phenyl-3-[(2-piperidin-1-yl-pyrimidin-4-ylamino)-methyl]-1H-quinolin-4-one trifluoroacetate salt], 350 nM; under `O=c1c(CNc2nc3ccccc3s2)cn(-c2ccccc2)c2cc(Cl)ccc12` [Example I-175, 3-(Benzothiazol-2-ylaminomethyl)-7-chloro-1-phenyl-1H-quinolin-4-one], 700 nM.

`O=c1c(CNc2nc3ccccc3[nH]2)cn(-c2ccccc2)c2cc(Cl)ccc12` [Example I-176, 3-[(1H-Benzoimidazol-2-ylamino)-methyl]-7-chloro-1-phenyl-1H-quinolin-4-one] showed an IC50 of 850 nM.

For the compound `N#C/N=C(/NCc1cn(-c2ccccc2)c2cc(Cl)ccc2c1=O)N1CCOCC1` [Example I-177, [(7-Chloro-4-oxo-1-phenyl-1,4-dihydro-quinolin-3-ylmethyl)-amino]-morpholin-4-yl-methylene-cyanamide], the IC50 turned out to be 1200 nM.

`N#C/N=C(/NCc1cn(-c2ccccc2)c2cc(Cl)ccc2c1=O)Nc1ccccc1` [Example I-178, [(7-Chloro-4-oxo-1-phenyl-1,4-dihydro-quinolin-3-ylmethyl)-amino]-phenylamino-methylene-cyanamide] showed an IC50 of 2700 nM. `O=C(NCc1cn(-c2ccccc2)c2cc(Cl)ccc2c1=O)Oc1ccccc1` [Example I-179, (7-Chloro-4-oxo-1-phenyl-1,4-dihydro-quinolin-3-ylmethyl)-carbamic acid phenyl ester] yielded an IC50 of 2000 nM. Next, `O=C(NCc1cn(-c2ccccc2)c2cc(Cl)ccc2c1=O)N1CCN(c2ccccc2)CC1` [Example I-180, 4-Phenyl-piperazine-1-carboxylic acid (7-chloro-4-oxo-1-phenyl-1,4-dihydro-quinolin-3-ylmethyl)-amide]: 120 nM; `CC(C)(C)OC(=O)N[C@H]1CC[C@@H](NC(=O)NCc2cn(-c3ccccc3)c3cc(Cl)ccc3c2=O)CC1` [Example I-181, {4-[3-(7-Chloro-4-oxo-1-phenyl-1,4-dihydro-quinolin-3-ylmethyl)-ureido]-cyclohexyl}-carbamic acid tert-butyl ester]: 200 nM.

The values are drawn from patent US8501732B2, “Aminomethyl quinolone compounds” (Hoffmann-La Roche Inc., priority 2011, dated 2013).
